Source: US20090217393A1, “Growth Promoting Agent and Life Prolonging Agent” (B FOOD SCIENCE CO., LTD., priority 2005, published 2009)

How the values were obtained:
Arabidopsis plants = assay: Arabidopsis plant cultivation test; format: in vivo; conditions: Murashige & Skoog medium containing 0.06% by mass of erythritol; vs control
From the text: Arabidopsis plants were separately inoculated into a Murashige & Skoog medium containing 0.06% by mass of erythritol (erythritol-added group; the present invention) and a medium containing no erythritol (no-erythritol-added group; control), followed by comparison of growth of the Arabidopsis plants.

shiitake = assay: Mushroom (shiitake) cultivation test; format: in vivo; conditions: for Number of mushroom with pileus diameter of 5 cm or more: 8 days later, control 2
Experimental: A shiitake cultivation test was performed using a commercially available shiitake cultivation kit.
The cultivation kit is a product produced by hardening wood chips prepared by pulverizing broad-leaved tree, together with a nutritional supplement and a shiitake fungus into a block form. The blocks were separately immersed in aqueous solutions containing 0% by mass (no addition), 0.05% by mass, 0.5% by mass, and 5% by mass of erythritol, and the surfaces of the blocks were washed. Then, the blocks were placed in plastic bags to prevent drying, and the tops of the bags were closed with clothespins, followed by cultivation of the shiitake while adjusting the temperature to 23° C. during the daytime and to 8° C. during the nighttime. Whenever the surfaces of the blocks were dried, the surfaces of the blocks were moisturized using a spray with the aqueous solutions containing erythritol at the above-mentioned each concentration. 3 days later, the shiitake started to germinate on the blocks, and 8 days later, the diameter and number of each pileus of the shiitake were measured.

[1] = system: Layers (white Plymouth Rock); assay: Layer growth test; format: in vivo; conditions: feed containing 5% by mass of erythritol
Experimental: Layers (white Plymouth Rock) were divided into a group fed with a feed containing 5% by mass of erythritol (erythritol-added group; the present invention) and a group fed with a feed containing no erythritol (no-erythritol-added group; control), and bred. The breeding was performed for 24 months, which was generally defined so as to generate economic benefits, and the survival rates were continuously watched. Meanwhile, average body weights (g) were continuously watched for four weeks.

Radish sprouts = assay: Radish sprout cultivation test; format: in vivo
Experimental: Radish sprouts were cultivated in 0.75% agar mediums containing erythritol, mannitol, and sorbitol each at concentrations of 0.05% by mass, 0.1% by mass, and 0.5% by mass as sugar alcohols, and in an agar medium containing no sugar alcohol (0%). 3 and 6 days after germination, the lengths of radish sprouts were measured.

[2] = system: yeast Saccharomyces cerevisiae; assay: Yeast culture test; format: cell-based; conditions: SD medium containing 0.006% by mass of erythritol
Experimental: A yeast Saccharomyces cerevisiae was cultured in an SD medium containing 0.006% by mass of erythritol (erythritol-added group; the present invention) and in an SD medium containing no erythritol (no-erythritol-added group; control). 27 hours later, absorbances at 660 nm were measured.

Crj:BDF1 mice (male) = assay: Mouse breeding test; format: in vivo; conditions: feed containing 5% by mass of erythritol
From the text: Crj:BDF1 mice (male) were divided into a group fed with a feed containing 5% by mass of erythritol (erythritol-added group; the present invention) and a group fed with a feed containing no erythritol (no-erythritol-added group; control), and bred, followed by investigation of 50% survival times, 75% survival times, average survival times, survival rates, and maximum survival times.

[3] = 0.05% by mass sugar alcohol in 0.75% agar medium, After 3 days
[4] = 0.05% by mass sugar alcohol in 0.75% agar medium, After 6 days
[5] = 0.1% by mass sugar alcohol in 0.75% agar medium, After 3 days
[6] = 0.1% by mass sugar alcohol in 0.75% agar medium, After 6 days
[7] = 0.5% by mass sugar alcohol in 0.75% agar medium, After 3 days
[8] = 0.5% by mass sugar alcohol in 0.75% agar medium, After 6 days

**Q.** What does the source list for `OC[C@@H](O)[C@@H](O)CO` [erythritol]?
**A.** growth promoting effect on roots and leaves/stems (Arabidopsis plants): confirmed; Number of mushroom with pileus diameter of 5 cm or more (shiitake; 0.05% by mass erythritol aqueous solution): 8; Number of mushroom with pileus diameter of 5 cm or more (shiitake; 0.5% by mass erythritol aqueous solution): 5; Number of mushroom with pileus diameter of 5 cm or more (shiitake; 5.0% by mass erythritol aqueous solution): 9; numbers of mushrooms with a pileus diameter of 5 cm or more compared with control (shiitake; all the concentrations (0.05, 0.5, 5% by mass)): significantly increase; survival rate compared with control ([1]; breeding for 24 months, FIG. 2): increased; average body weight compared with control ([1]; watched for four weeks, FIG. 3): increased; Lengths of radish sprouts (Radish sprouts; [3]): 46 mm; Lengths of radish sprouts (Radish sprouts; [4]): 109 mm; length of radish sprouts / growth promoting effect compared with no-sugar-alcohol-added group (Radish sprouts; 0.05 to 0.5% by mass in agar medium): particularly excellent growth promoting effects; Lengths of radish sprouts (Radish sprouts; [5]): 30 mm; Lengths of radish sprouts (Radish sprouts; [6]): 76 mm; Lengths of radish sprouts (Radish sprouts; [7]): 31 mm; Lengths of radish sprouts (Radish sprouts; [8]): 87 mm; yeast proliferation effect [2]: confirmed; absorbance at 660 nm ([2]; 27 hours later, control 2.65): 2.88; sizes of the yeast cells larger than control ([2]; under a microscope): about 20%; 50% survival time (Crj:BDF1 mice (male); Crj:BDF1 male mice): 927 days; 75% survival time (Crj:BDF1 mice (male); Crj:BDF1 male mice): 850 days; Average survival time (Crj:BDF1 mice (male); Crj:BDF1 male mice): 768 days; Maximum survival time (Crj:BDF1 mice (male); Crj:BDF1 male mice): 1,080 days; 50% survival time compared with control (Crj:BDF1 mice (male); vs no-erythritol-added group): prolonged; 75% survival time compared with control (Crj:BDF1 mice (male); vs no-erythritol-added group): prolonged; average survival time compared with control (Crj:BDF1 mice (male); vs no-erythritol-added group): prolonged; maximum survival time compared with control (Crj:BDF1 mice (male); vs no-erythritol-added group): no significant difference; survival rate compared with control (Crj:BDF1 mice (male); vs no-erythritol-added group): prolonged

**Q.** With `OC[C@@H](O)[C@@H](O)[C@H](O)[C@H](O)CO` [mannitol] as the compound, how does the “Lengths of radish sprouts” value (Radish sprouts; [3]) read?
**A.** The value was 15 mm.

**Q.** What about the “Lengths of radish sprouts” value (Radish sprouts; [4]) of the same compound?
**A.** Its value is 59 mm.

**Q.** What about the “Lengths of radish sprouts” value (Radish sprouts; [5]) of the same compound?
**A.** The value was 29 mm.

**Q.** What about the “Lengths of radish sprouts” value (Radish sprouts; [6]) of the same compound?
**A.** Its value is 61 mm.

**Q.** What about the “Lengths of radish sprouts” value (Radish sprouts; [7]) of the same compound?
**A.** Its value is 24 mm.

**Q.** And the “Lengths of radish sprouts” value (Radish sprouts; [8])?
**A.** Its value is 55 mm.

**Q.** Which “Lengths of radish sprouts” value (Radish sprouts; [3]) does the source give for `OC[C@@H](O)[C@@H](O)[C@H](O)[C@@H](O)CO` [sorbitol] here?
**A.** The value was 30 mm.

**Q.** What about the “Lengths of radish sprouts” value (Radish sprouts; [4]) of the same compound?
**A.** The value was 68 mm.

**Q.** And the “Lengths of radish sprouts” value (Radish sprouts; [5])?
**A.** The value was 31 mm.

**Q.** What about the “Lengths of radish sprouts” value (Radish sprouts; [6]) of the same compound?
**A.** The value was 64 mm.

**Q.** What about the “Lengths of radish sprouts” value (Radish sprouts; [7]) of the same compound?
**A.** The value was 27 mm.

**Q.** And the “Lengths of radish sprouts” value (Radish sprouts; [8])?
**A.** Its value is 52 mm.
